Laboratory results from ChEMBL document CHEMBL5131391, “One-pot three-component synthesis of novel pyrazolo[3,4-b]pyridines as potent antileukemic agents” (Eur J Med Chem, 2022).
pIC50: −log10 of the molar value.

What was measured:
Type in all cases: functional
[1] = tested on: RXF 393; test: Antiproliferative activity against human RXF 393 cells assessed as growth inhibition at 10 uM measured after 48 hrs by NCI protocol based SRB assay relative to control; details: read-out: GI
[2] = tested on: HOP-62; test: Antiproliferative activity against human HOP-62 cells assessed as growth inhibition at 10 uM measured after 48 hrs by NCI protocol based SRB assay relative to control; details: read-out: GI
[3] = tested on: M14; test: Antiproliferative activity against human M14 cells assessed as growth inhibition at 10 uM measured after 48 hrs by NCI protocol based SRB assay relative to control; details: read-out: GI
[4] = tested on: HCT-116; test: Antiproliferative activity against human HCT-116 cells assessed as growth inhibition at 10 uM measured after 48 hrs by NCI protocol based SRB assay relative to control; details: read-out: GI
[5] = tested on: CCRF-CEM; test: Antiproliferative activity against human CEM cells assessed as reduction in cell viability incubated for 72 hrs by resazurin dye based assay
[6] = tested on: MDA-MB-435; test: Antiproliferative activity against human MDA-MB-435 cells assessed as growth inhibition at 10 uM measured after 48 hrs by NCI protocol based SRB assay relative to control; details: read-out: GI
[7] = tested on: EKVX; test: Antiproliferative activity against human EKVX cells assessed as growth inhibition at 10 uM measured after 48 hrs by NCI protocol based SRB assay relative to control; details: read-out: GI
[8] = tested on: NCI-H460; test: Antiproliferative activity against human NCI-H460 cells assessed as growth inhibition at 10 uM measured after 48 hrs by NCI protocol based SRB assay relative to control; details: read-out: GI
[9] = tested on: COLO 205; test: Antiproliferative activity against human COLO 205 cells assessed as growth inhibition at 10 uM measured after 48 hrs by NCI protocol based SRB assay relative to control; details: read-out: GI
[10] = tested on: MDA-MB-231; test: Antiproliferative activity against human MDA-MB-231 cells assessed as growth inhibition at 10 uM measured after 48 hrs by NCI protocol based SRB assay relative to control; details: read-out: GI
[11] = tested on: HOP-92; test: Antiproliferative activity against human HOP-92 cells assessed as growth inhibition at 10 uM measured after 48 hrs by NCI protocol based SRB assay relative to control; details: read-out: GI
[12] = tested on: OVCAR-5; test: Antiproliferative activity against human OVCAR-5 cells assessed as growth inhibition at 10 uM measured after 48 hrs by NCI protocol based SRB assay relative to control; details: read-out: GI
[13] = tested on: Malme-3M; test: Antiproliferative activity against human Malme-3M cells assessed as growth inhibition at 10 uM measured after 48 hrs by NCI protocol based SRB assay relative to control; details: read-out: GI
[14] = tested on: KM12; test: Antiproliferative activity against human KM12 cells assessed as growth inhibition at 10 uM measured after 48 hrs by NCI protocol based SRB assay relative to control; details: read-out: GI
[15] = tested on: HCC 2998; test: Antiproliferative activity against human HCC 2998 cells assessed as growth inhibition at 10 uM measured after 48 hrs by NCI protocol based SRB assay relative to control; details: read-out: GI
[16] = tested on: SK-MEL-28; test: Antiproliferative activity against human SK-MEL-28 cells assessed as growth inhibition at 10 uM measured after 48 hrs by NCI protocol based SRB assay relative to control; details: read-out: GI
[17] = tested on: UACC-257; test: Antiproliferative activity against human UACC-257 cells assessed as growth inhibition at 10 uM measured after 48 hrs by NCI protocol based SRB assay relative to control; details: read-out: GI
[18] = tested on: OVCAR-8; test: Antiproliferative activity against human OVCAR-8 cells assessed as growth inhibition at 10 uM measured after 48 hrs by NCI protocol based SRB assay relative to control; details: read-out: GI
[19] = tested on: OVCAR-4; test: Antiproliferative activity against human OVCAR-4 cells assessed as growth inhibition at 10 uM measured after 48 hrs by NCI protocol based SRB assay relative to control; details: read-out: GI
[20] = tested on: MOLT-4; test: Antiproliferative activity against human MOLT-4 cells assessed as growth inhibition at 10 uM measured after 48 hrs by NCI protocol based SRB assay relative to control; details: read-out: GI
[21] = tested on: SW-620; test: Antiproliferative activity against human SW-620 cells assessed as growth inhibition at 10 uM measured after 48 hrs by NCI protocol based SRB assay relative to control; details: read-out: GI
[22] = tested on: NCI-H522; test: Antiproliferative activity against human NCI-H522 cells assessed as growth inhibition at 10 uM measured after 48 hrs by NCI protocol based SRB assay relative to control; details: read-out: GI
[23] = tested on: Hs-578T; test: Antiproliferative activity against human Hs-578T cells assessed as growth inhibition at 10 uM measured after 48 hrs by NCI protocol based SRB assay relative to control; details: read-out: GI
[24] = tested on: 786-0; test: Antiproliferative activity against human 786-0 cells assessed as growth inhibition at 10 uM measured after 48 hrs by NCI protocol based SRB assay relative to control; details: read-out: GI
[25] = tested on: ML-2; test: Antiproliferative activity against human ML-2 cells assessed as reduction in cell viability incubated for 72 hrs by resazurin dye based assay; details: ML-2, 72 h
[26] = tested on: RS4-11; test: Antiproliferative activity against human RS4-11 cells assessed as reduction in cell viability incubated for 72 hrs by resazurin dye based assay; details: RS4-11, 72 h
[27] = tested on: KOPN-8; test: Antiproliferative activity against human KOPN-8 cells assessed as reduction in cell viability incubated for 72 hrs by resazurin dye based assay; details: KOPN-8, 72 h
[28] = tested on: HT-29; test: Antiproliferative activity against human HT-29 cells assessed as growth inhibition at 10 uM measured after 48 hrs by NCI protocol based SRB assay relative to control; details: read-out: GI
[29] = tested on: SK-OV-3; test: Antiproliferative activity against human SK-OV-3 cells assessed as growth inhibition at 10 uM measured after 48 hrs by NCI protocol based SRB assay relative to control; details: read-out: GI

N#Cc1c(-c2ccc(Cl)cc2)nc2c(c(-c3ccccc3)nn2-c2ccccc2)c1-c1ccc(O)cc1
inhibition of growth at 10 µM [1]: 127% | inhibition of growth at 10 µM [2]: 51% | inhibition of growth at 10 µM [3]: 62% | inhibition of growth at 10 µM [4]: 86% | pIC50 [5]: 4.37 | inhibition of growth at 10 µM [6]: 52% | inhibition of growth at 10 µM [7]: 33% | inhibition of growth at 10 µM [8]: 75% | inhibition of growth at 10 µM [9]: 48% | inhibition of growth at 10 µM [10]: 64% | inhibition of growth at 10 µM [11]: 44% | inhibition of growth at 10 µM [12]: 17% | inhibition of growth at 10 µM [13]: 39% | inhibition of growth at 10 µM [14]: 59% | inhibition of growth at 10 µM [15]: 16% | inhibition of growth at 10 µM [16]: 44% | inhibition of growth at 10 µM [17]: 15% | inhibition of growth at 10 µM [18]: 51% | inhibition of growth at 10 µM [19]: 36% | inhibition of growth at 10 µM [20]: 76% | inhibition of growth at 10 µM [21]: 46% | inhibition of growth at 10 µM [22]: 45% | inhibition of growth at 10 µM [23]: 74% | inhibition of growth at 10 µM [24]: 83%

Cc1ccc(-c2nc3c(c(-c4ccccc4)nn3-c3ccccc3)c(-c3ccc(O)cc3)c2C#N)cc1
inhibition of growth at 10 µM [1]: 110% | inhibition of growth at 10 µM [2]: 60% | inhibition of growth at 10 µM [3]: 40% | inhibition of growth at 10 µM [4]: 58% | pIC50 [5]: 4.87 | inhibition of growth at 10 µM [6]: 36% | inhibition of growth at 10 µM [7]: 26% | pIC50 [25]: 5.85 | inhibition of growth at 10 µM [8]: 73% | inhibition of growth at 10 µM [9]: 30% | inhibition of growth at 10 µM [10]: 55% | inhibition of growth at 10 µM [11]: 26% | inhibition of growth at 10 µM [13]: 25% | pIC50 [26]: 5.57 | inhibition of growth at 10 µM [14]: 45% | inhibition of growth at 10 µM [16]: 33% | inhibition of growth at 10 µM [18]: 31% | inhibition of growth at 10 µM [19]: 18% | inhibition of growth at 10 µM [20]: 60% | inhibition of growth at 10 µM [21]: 38% | inhibition of growth at 10 µM [22]: 31% | inhibition of growth at 10 µM [23]: 77% | pIC50 [27]: 6.52 | inhibition of growth at 10 µM [24]: 82%

N#Cc1c(-c2ccco2)nc2c(c(-c3ccccc3)nn2-c2ccccc2)c1-c1ccc(O)cc1
inhibition of growth at 10 µM [2]: 149% | inhibition of growth at 10 µM [28]: 70% | inhibition of growth at 10 µM [3]: 35% | inhibition of growth at 10 µM [4]: 64% | pIC50 [5]: 4.62 | inhibition of growth at 10 µM [6]: 38% | inhibition of growth at 10 µM [7]: 44% | pIC50 [25]: 4.89 | inhibition of growth at 10 µM [8]: 51% | inhibition of growth at 10 µM [9]: 97% | inhibition of growth at 10 µM [10]: 18% | inhibition of growth at 10 µM [11]: 24% | inhibition of growth at 10 µM [13]: 66% | pIC50 [26]: 4.82 | inhibition of growth at 10 µM [14]: 58% | inhibition of growth at 10 µM [16]: 24% | inhibition of growth at 10 µM [17]: 40% | inhibition of growth at 10 µM [18]: 45% | inhibition of growth at 10 µM [19]: 23% | inhibition of growth at 10 µM [20]: 91% | inhibition of growth at 10 µM [21]: 53% | inhibition of growth at 10 µM [22]: 81% | inhibition of growth at 10 µM [23]: 47% | pIC50 [27]: 5.00 | inhibition of growth at 10 µM [24]: 41% | inhibition of growth at 10 µM [29]: 54%
